Experimental findings from patent US20070021509A1, “Phosphate transport inhibitors” (priority 2001, published 2007) are described below.

Where only a bound is given, the exact number is not on record here.

One assay concerns phosphate uptake by rabbit intestinal Brush Border Membrane Vesicles (BBMV). The assay can be described thus: 33PO4 uptake in rabbit intestinal BBMV (HTS), phosphate transporter inhibition in vitro. The conditions noted are these: Table 1, phosphate uptake, read-out: IC50. In kind it is biochemical. On the procedure:
The following example outlines the procedures required for in vitro measurement of the inhibition of phosphate uptake by rabbit intestinal Brush Border Membrane Vesicles (BBMV).
Rabbit Intestinal Brush Border Membrane Vesicles (BBMV) were isolated from mucosal scrapings of the upper small intestine (duodenum) of male New Zealand White rabbits. The scrapings were divided into 2 g aliquots in cryopreservation vials, frozen in liquid nitrogen, and stored at −80° C.
The following procedure was performed for each 2 g sample of BBMV mucosal scraping. Buffer volumes and container sizes were adjusted appropriately for the number of 2 g samples used. The entire preparation was performed on ice, unless otherwise stated.
Mucosal scrapings (2 g per tube) were thawed in a 37° C. water bath for 3 minutes and then placed on ice. The scrapings were suspended with a total of 7.5 ml of 300 MET, and transferred to a 250 mL Corning tube on ice. To the suspension was added 30 mL cold (4° C.) deionized water (dH20). The suspension was homogenized with a tissue homogenizer (Polytron) on high speed for 2 minutes. A stir bar and MgCl2 (81.3 mg) was added. The suspension was mixed well by inverting the closed tube. The suspension was stirred on ice, ensuring that a good vortex is achieved with the stir bar, for 40 minutes. The suspension was transferred to a chilled centrifuge tube and spun at 4000×g for 15 minutes. The supernatant was transferred to a new chilled centrifuge tube and spun at 32000×g for 30 minutes. The supernatant was discarded and the pellet was re-suspended with 34 mL cold 60 MET. The suspension was homogenized with a Dounce homogenizer with 8 strokes. The suspension was transferred to a fresh 250 mL Corning tube. A stir bar and 69.1 mg MgCl2 were added. The suspension was stirred well on ice for 10 minutes. The suspension was transferred to a chilled centrifuge tube and spun at 4000×g for 15 minutes. The supernatant was transferred to a new chilled centrifuge tube and spun at 32000×g for 30 minutes. The supernatant was discarded. At this stage, the preparation could be continued or this pellet (P4) could be frozen in liquid nitrogen and stored at −80° C. When needed, this pellet could be allowed to thaw at room temperature for 5 minutes. Continuing the preparation, the pellet was re-suspended with 34 mL cold 280 MH. The suspension was homogenized in a Dounce homogenize with 8 strokes. The suspension was transferred to a new chilled centrifuge tube and spun at 32000×g for 30 minutes. The supernatant was discarded. To the pellet was added 500 μL 280 MH and the pellet was re-suspended very carefully with a 1 mL tuberculin syringe with a 25-gauge needle with care not to create bubbles. Once the entire pellet was suspended, the suspension was transferred to a chilled 1.5 mL microfuge tube. The suspension was evenly dispersed by bringing the suspension up into the syringe through the 25-gauge needle, and back out again 8 times with care not to create bubbles. The total protein concentration was determined by performing a Bradford Protein Assay. Using that value, the BBMV were diluted with 280 MH to reach approximately 0.5-2.0 mg/mL. The solution was used as soon as possible for uptake studies.
The following experiment was performed using a Beckman Multimek 96-tip robotic pipettor. The following outlines the preparation required to screen one 96-well plate of compounds. However, multiple plates could be screened in one experiment.
To the “Uptake Buffers” was added ^33PO4 to reach 200,000 CPM/19 μL. The buffer solutions were stored at room temperature. The following control solutions were prepared and placed into appropriate wells of a polypropylene, 96-well V-bottom plate (“Hot Stock Plate”):
a. Maximum activity (MAX)−Na Uptake buffer+^33PO4 at 200,000 CPM/19 μL
b. Midline activity (MID)−MAX+100 μM KH2PO4, pH 7.4
c. Minimum activity (MIN)− K Uptake buffer+^33PO4 at 200,000 CPM/19 μL
Regarding `O=C(O)c1cc(Br)ccc1NS(=O)(=O)c1ccc(-c2ccccc2)cc1` [Compound 1], the IC50 (in general, the concentration that gives 50% inhibition) was less than 50 µM.

In the case of `O=C(O)c1cc(Br)ccc1NS(=O)(=O)c1ccc(OC(F)(F)F)cc1` [Compound 2], the IC50 is less than 50 µM.

On to `O=C(O)c1cc(Br)ccc1NS(=O)(=O)c1cc(C(F)(F)F)cc(C(F)(F)F)c1` [Compound 3], for which the IC50 lay within 51 to 100 µM.

With `O=C(O)c1cc(Br)ccc1NS(=O)(=O)c1cc(Cl)c(Cl)cc1Cl` [Compound 4], the IC50 lay in the range of 51 to 100 µM.

On to `O=C(O)c1cc(Br)ccc1NS(=O)(=O)c1ccc([N+](=O)[O-])cc1` [Compound 5], for which the IC50 lay in the range of 51 to 100 µM.

With `Cc1cc(C)c(S(=O)(=O)Nc2ccc(Br)cc2C(=O)O)c(C)c1` [Compound 6], the IC50 lay in the range of 51 to 100 µM.

As to `O=C(O)c1cc(Br)ccc1NS(=O)(=O)c1ccc(C(F)(F)F)cc1` [Compound 7], the IC50 is 51 to 100 µM.

Regarding `O=C(O)c1cc(Br)ccc1NS(=O)(=O)c1ccc(-c2ccccc2)cc1` [Compound 8], the IC50 is 51 to 100 µM.

For the molecule `Cc1ccc(S(=O)(=O)Nc2ccc(Br)cc2C(=O)O)cc1[N+](=O)[O-]` [Compound 9], the IC50 lay within 51 to 100 µM.

Turning to `O=C(O)c1cc(Br)ccc1NS(=O)(=O)c1cccc(Cl)c1` [Compound 10], the IC50 is 101 to 500 µM.

`O=C(O)c1cc(Br)ccc1NS(=O)(=O)c1ccc(Oc2ccccc2)cc1` [Compound 11]: the IC50 was 101 to 500 µM.

`O=C(O)c1cc(Br)ccc1NS(=O)(=O)c1ccc(Cl)c([N+](=O)[O-])c1` [Compound 12]: the IC50 lay within 101 to 500 µM.

Regarding `O=C(O)c1cc(Br)ccc1NS(=O)(=O)c1cccc([N+](=O)[O-])c1` [Compound 13], the IC50 lay in the range of 101 to 500 µM.

Turning to `O=C(O)c1cc(Br)ccc1NS(=O)(=O)c1ccc(OC(F)(F)F)cc1` [Compound 14], the IC50 was in the range of 101 to 500 µM.

As to `O=C(O)c1cc(Br)ccc1NS(=O)(=O)c1ccc(Cl)c([N+](=O)[O-])c1` [Compound 15], the IC50 lay within 101 to 500 µM.

`O=C(O)c1cc(Br)ccc1NS(=O)(=O)c1cccc(C(F)(F)F)c1` [Compound 16]: the IC50 was 101 to 500 µM.

For the molecule `O=C(O)c1cc(Br)ccc1NS(=O)(=O)c1ccc(Br)cc1` [Compound 18], the IC50 was in the range of 101 to 500 µM.

Consider `O=C(O)c1cc(Br)ccc1NS(=O)(=O)c1cccc2ccccc12` [Compound 19], for which the half-maximal inhibitory concentration (IC50) was in the range of 101 to 500 µM.

Regarding `Cc1ccc(S(=O)(=O)Nc2ccc(Br)cc2C(=O)O)cc1[N+](=O)[O-]` [Compound 20], the IC50 is 101 to 500 µM.

On to `O=C(O)c1cc(Br)ccc1NS(=O)(=O)c1ccc(I)cc1` [Compound 24], for which the IC50 fell in the range of 101 to 500 µM.

For the molecule `O=C(O)c1cc(Br)ccc1NS(=O)(=O)c1ccccc1F` [Compound 25], the IC50 lay within 101 to 500 µM.

For the molecule `O=C(O)c1cc(Br)ccc1NS(=O)(=O)c1ccccc1C(F)(F)F` [Compound 26], the IC50 was in the range of 101 to 500 µM.

With `O=C(O)c1cc(Br)ccc1NS(=O)(=O)c1ccc(Cl)cc1` [Compound 27], the IC50 is 101 to 500 µM.

For the molecule `CCCCCc1ccc(S(=O)(=O)Nc2ccc(Br)cc2C(=O)O)cc1` [Compound 28], the IC50 was in the range of 101 to 500 µM.

With `O=C(O)c1cc(Br)ccc1NS(=O)(=O)c1ccc(Cl)cc1` [Compound 29], the IC50 was 101 to 500 µM.

On to `C=Cc1ccc(S(=O)(=O)Nc2ccc(Br)cc2C(=O)O)cc1` [Compound 30], for which the IC50 fell in the range of 101 to 500 µM.

Regarding `O=C(O)c1cc(Br)ccc1NS(=O)(=O)c1ccccc1Cl` [Compound 31], the IC50 was in the range of 101 to 500 µM.

For the molecule `O=C(O)c1cc(Br)ccc1NS(=O)(=O)c1ccc([N+](=O)[O-])cc1` [Compound 33], the IC50 lay in the range of 101 to 500 µM.

Turning to `O=C(O)c1cc(Br)ccc1NS(=O)(=O)c1cccc(F)c1` [Compound 34], the IC50 was in the range of 101 to 500 µM.

As to `COc1ccc(OC)c(S(=O)(=O)Nc2ccc(Br)cc2C(=O)O)c1` [Compound 35], the IC50 fell in the range of 101 to 500 µM.

In the case of `COc1ccc(S(=O)(=O)Nc2ccc(Br)cc2C(=O)O)cc1` [Compound 37], the IC50 lay within 501 to 1000 µM.

As for `O=C(O)c1cc(Br)ccc1NS(=O)(=O)c1ccccc1[N+](=O)[O-]` [Compound 38], the IC50 was 1000 to 1500 µM.

Take `O=C(O)c1cc(Br)ccc1NS(=O)(=O)c1ccc(Cl)cc1` [Compound 39]: the IC50 was greater than 1500 µM.

With `O=C(O)c1cc(Br)ccc1NS(=O)(=O)c1ccc(Cl)c([N+](=O)[O-])c1` [Compound 40], the IC50 is greater than 1500 µM.

Take `O=C(O)c1cc(Br)ccc1NS(=O)(=O)c1ccc(OC(F)(F)F)cc1` [Compound 41]: the IC50 is greater than 1500 µM.

For `COc1ccc(S(=O)(=O)Nc2ccc(Br)cc2C(=O)O)cc1[N+](=O)[O-]` [Compound 42], the IC50 is greater than 1500 µM.

For the molecule `O=C(O)c1cc(Br)ccc1NS(=O)(=O)c1ccc(Cl)cc1` [Compound 43], the IC50 was greater than 1500 µM.

For the molecule `O=C(O)c1cc(Br)ccc1NS(=O)(=O)c1ccc(O)c([N+](=O)[O-])c1` [Compound 44], the IC50 is greater than 1500 µM.

`O=C(O)c1cc(Br)ccc1NS(=O)(=O)c1ccc(Cl)cc1` [Compound 46]: the IC50 is greater than 1500 µM.

On to `O=C(O)c1ccc(S(=O)(=O)Nc2ccc(Br)cc2C(=O)O)cc1` [Compound 47], for which the IC50 was greater than 1500 µM.

Consider `O=C(O)c1cc(Br)ccc1NS(=O)(=O)c1ccccc1[N+](=O)[O-]` [Compound 48], for which the IC50 was greater than 1500 µM.

The same assay, now with this note: Table 2, phosphate uptake, read-out: IC50.
Consider `O=C(Nc1ccccc1Cl)c1cc(Br)ccc1NS(=O)(=O)c1ccc(OC(F)(F)F)cc1` [Compound 50], for which the IC50 was less than 50 µM.

On to `O=C(Nc1ccc(Br)cc1)c1cc(Br)ccc1NS(=O)(=O)c1ccc(OC(F)(F)F)cc1` [Compound 51], for which the half-maximal inhibitory concentration (IC50) was less than 50 µM.

Take `O=C(NCc1ccc(F)cc1)c1cc(Br)ccc1NS(=O)(=O)c1ccc(OC(F)(F)F)cc1` [Compound 52]: the IC50 was less than 50 µM.

As for `O=C(NCc1ccc(Cl)cc1)c1cc(Br)ccc1NS(=O)(=O)c1ccc(OC(F)(F)F)cc1` [Compound 53], the IC50 is less than 50 µM.

As for `COc1cccc(CNC(=O)c2cc(Br)ccc2NS(=O)(=O)c2ccc(OC(F)(F)F)cc2)c1` [Compound 54], the IC50 was less than 50 µM.

On to `O=C(NCc1ccccc1C(F)(F)F)c1cc(Br)ccc1NS(=O)(=O)c1ccc(OC(F)(F)F)cc1` [Compound 55], for which the IC50 is less than 50 µM.

Consider `COc1ccc(NC(=O)c2cc(Br)ccc2NS(=O)(=O)c2ccc(OC(F)(F)F)cc2)cc1` [Compound 56], for which the IC50 was 51 to 100 µM.

As to `Cc1ccc(NC(=O)c2cc(Br)ccc2NS(=O)(=O)c2ccc(OC(F)(F)F)cc2)cc1` [Compound 57], the IC50 fell in the range of 51 to 100 µM.

Turning to `Cc1cccc(CNC(=O)c2cc(Br)ccc2NS(=O)(=O)c2ccc(OC(F)(F)F)cc2)c1` [Compound 58], the IC50 was in the range of 51 to 100 µM.

As to `O=C(Nc1ccc(Cl)c(Cl)c1)c1cc(Br)ccc1NS(=O)(=O)c1ccc(OC(F)(F)F)cc1` [Compound 59], the IC50 was in the range of 51 to 100 µM.

In the case of `O=C(NCc1ccc(OC(F)(F)F)cc1)c1cc(Br)ccc1NS(=O)(=O)c1ccc(OC(F)(F)F)cc1` [Compound 60], the IC50 lay in the range of 51 to 100 µM.

Regarding `O=C(NCc1ccccc1OC(F)(F)F)c1cc(Br)ccc1NS(=O)(=O)c1ccc(OC(F)(F)F)cc1` [Compound 61], the IC50 was in the range of 51 to 100 µM.

Regarding `O=C(Nc1ccccc1Br)c1cc(Br)ccc1NS(=O)(=O)c1ccc(OC(F)(F)F)cc1` [Compound 62], the IC50 was 51 to 100 µM.

Regarding `O=C(NCc1ccc(Cl)c(Cl)c1)c1cc(Br)ccc1NS(=O)(=O)c1ccc(OC(F)(F)F)cc1` [Compound 63], the IC50 fell in the range of 51 to 100 µM.

Consider `O=C(NCc1ccc(F)cc1F)c1cc(Br)ccc1NS(=O)(=O)c1ccc(OC(F)(F)F)cc1` [Compound 64], for which the IC50 fell in the range of 51 to 100 µM.

On to `CSc1ccc(NC(=O)c2cc(Br)ccc2NS(=O)(=O)c2ccc(OC(F)(F)F)cc2)cc1` [Compound 65], for which the IC50 was in the range of 51 to 100 µM.
